# According to publication PMC6979384, “Characterization of the plant homeodomain (PHD) reader family for their histone tail interactions” (Epigenetics & Chromatin, 2020):
# “Also recorded” adds a separate entry of the source.
# Experiments:
# CHD5 (PPCC) = experiment: dCypher AlphaScreen Phase B (full peptide screen); type: binding, human; conditions: reader 5.2 nM, 100 nM peptide, 23 °C, n = 2
# Experimental: (§1) X-axes are log(protein concentration (M)) at constant peptide concentration (100 nM); Y-axes are AlphaScreen counts, representing relative strength of binding (n = 2; error bars are S.D.). i Heat map represents relative binding to H3 N-terminal peptides (left) by PHD-containing GST-tagged proteins (top) using the dCypher AlphaScreen platform. Protein concentrations can be found in Additional file 5: Table S4. Binding strength is indicated by color gradient from green to yellow (stronger to weaker). […] Alpha counts (n = 2) were normalized individually for each protein to the highest signal for each respective assay. For full dCypher peptide screen data, see Additional file 4: Table S3
# (§2) Once the optimal protein concentration ranges for each of the eight readers were determined, we conducted the full dCypher peptide screen (293 histone peptides) (Fig. 3i; Additional file 4: Table S3).
# (§3) The dCypher peptide screen assay was performed as previously described. Briefly, 5 μL of GST-tagged reader domains (optimal protein concentration for library screening determined by initial binding curves to candidate peptides) were incubated with 5 μL of 400 nM (100 nM Final) biotinylated histone peptides (EpiCypher) for 30 min at 23 °C in 1× AlphaLISA Epigenetics buffer + epigenetics buffer supplement (PerkinElmer, AL1008) in a 384-well plate. A 10 μL mix of 5 µg/mL (2.5 μg/mL final) glutathione Acceptor beads (PerkinElmer, AL109M) and 10 μg/mL (5 μg/mL final) streptavidin Donor beads (PerkinElmer, 6760002) was prepared in 1× [Epigenetics buffer + supplement] and added to each well. Plates were incubated at 23 °C in subdued lighting for 60 min and AlphaLISA signal measured on a PerkinElmer 2104 EnVision (680 nm laser excitation, 570 nm emission filter ± 50 nm bandwidth).
# (§4) Supplementary file 13072_2020_328_MOESM4_ESM.xlsx: Additional file 4: Table S3. dCypher Results. Excel Tab Peptide Phase A is a compiled set of binding data: chromatin reader titration vs. several peptide targets. Data is presented as raw Alpha counts in duplicates at each concentration tested. Excel Tab Peptide Phase B is a compiled set of binding data: chromatin reader at optimized concentrations vs. entire 293 peptide library. Data is presented as the average and standard deviation of duplicates. […] Key: red = strong binding; blue = weak/no binding.
# TRIM66 (PB) = experiment: dCypher AlphaScreen Phase B (full peptide screen); type: binding, human; conditions: reader 7 nM, 100 nM peptide, 23 °C
# Experimental: as §1, §2, §3, §4
# MORC3 (CW) = experiment: Histone peptide microarray; type: binding, human; conditions: GST-tagged MORC3 (CW = CW-type Zn-finger), sheet Array Heatmap, each array performed twice, total n = 4
# Summary of the method: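 Binding read as mean relative signal from 4 replicates; microarray held 293 synthetic histone peptides with single or combinatorial PTMs. Each GST-tagged PHD reader was applied at 0.5 μM using the optimized Petell protocol.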
# KDM7A = experiment: Histone peptide microarray; type: binding, human; conditions: GST-tagged KDM7A, sheet Array Heatmap, each array performed twice, total n = 4
# Summary of the method: (§5)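 Using an optimized microarray protocol, purified GST-tagged PHD fingers were incubated at 0.5 μM on 293 histone peptides with single or multiple modifications, and array signal was recorded as the average of 4 replicates.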
# ING2 = experiment: Histone peptide microarray; type: binding, human; conditions: GST-tagged ING2, sheet Array Heatmap, each array performed twice, total n = 4
# Summary of the method: as §5
# MLL5 = experiment: Histone peptide microarray; type: binding, human; conditions: for Array Heatmap signal (histone peptide microarray): GST-tagged MLL5, sheet Array Heatmap, each array performed twice, total n = 4
# Summary of the method: as §5
# PHF21A = experiment: Histone peptide microarray; type: binding, human; conditions: GST-tagged PHF21A, sheet Array Heatmap, each array performed twice, total n = 4
# Summary of the method: as §5
# [1] = test system: 123 annotated human PHD-containing domains; experiment: PHD finger domain microarray probed with biotinylated peptides (all domains); type: binding; conditions: for number of H3-interacting domains with preference for this state: out of 31 H3-binding domains; for binding on domain microarray: GST-PHD readers in duplicate on nitrocellulose slides, biotinylated peptide pre-labeled with streptavidin-Cy3
# Excerpt: To define the histone binding preferences of the PHD finger proteome, we expressed and purified 123 annotated human PHD-containing domains as GST-tagged recombinant fusions from E. coli. The recombinant proteins consisted of either PHD fingers in isolation, or as tandem domains if a given PHD finger was located adjacent to another reader domain (e.g., one or more PHD fingers, Tudor, chromo and/or bromodomains) (Additional file 1: Table S1). These GST fusions were printed in duplicate on nitrocellulose-coated microarray slides and probed with biotinylated peptides that represented the N-termini of H3, H4, H2A or H2B (Fig. 1a and Additional file 2: Figure S1). As the majority of PHD readers thus far characterized are H3K4me0/3 readers, we included additional peptides (H3K4 as either mono-, di-, or trimethylated) to further determine any H3K4 methyl preference (Additional file 2: Figure S2 and Fig. 1b). As a control, we also probed these microarrays with an α-Tubulin peptide (a.a. 30–50) that would not be predicted to interact with PHD fingers (Additional file 2: Figure S1). […] We also cannot exclude the possibility that some PHD fingers might not be functionally active on the microarrays (perhaps due to misfolding or the lack of an important adjacent region).
# The protein domain microarray was designed to include 123 GST-tagged PHD-domain containing recombinant proteins. Protein domain microarray development and probing was as previously. Briefly, recombinant proteins were synthesized and cloned into pGEX-4T-1 vector by Biomatik Corporation. These GST-PHD readers were subsequently expressed, purified, and spotted in duplicate onto nitrocellulose-coated glass slides (Oncyte Avid slides, Grace Bio-Labs) using a pin arrayer (Aushon 2470, Aushon). For probing, microarray slides were blocked with 3% milk, 3% bovine serum albumin, 0.1% Tween 20 in PBS. Biotinylated peptides were pre-labeled with streptavidin-Cy3 fluorophore (GE Healthcare) and incubated with the blocked array slides. Slides were then washed with PBST and allowed to air dry. Fluorescent interactions were visualized using a GenePix 4200A Microarray Scanner (Molecular Devices).
binding (CHD5 (PPCC)),binding on domain microarray [1],Substance,Array Heatmap signal (histone peptide microarray) (MORC3 (CW)),Array Heatmap signal (histone peptide microarray) (KDM7A),Array Heatmap signal (histone peptide microarray) (ING2),Array Heatmap signal (histone peptide microarray) (MLL5),Array Heatmap signal (histone peptide microarray) (PHF21A),further results
preference for H3K4me0/1,–,H3 (1-20): unmodified H3 N-terminal peptide (1–20),0.4267,0.3004,0.5908,0.5452,0.4449,"binding (TRIM66 (PB); n = 2, listed as H3K4me0): preference for H3K4me0 and me1; also recorded: robust readers of H3K4me0 peptides; number of PHD-containing fusions with positive binding ([1]; of 123 PHD-containing fusions): 31; number of H3-interacting domains with preference for this state [1]: 10"
–,largely recognized equivalently,H3K4me2: H3 1-20 [Peptide H3K4me2],0.6297,0.5271,0.6539,0.5972,0.4967,–
–,largely recognized equivalently,H3K4me3: H3 1-20 [Peptide H3K4me3],0.5878,0.3234,0.6884,0.668,0.4238,"binding preference (MLL5; peptide microarray, reader 0.5 μM, n = 4): strong preference for H3K4me3 over the un-, mono-, or di-methylated H3K4 peptides; also recorded: specific reader for H3K4me3; number of H3-interacting domains with preference for this state [1]: 18"

# Further lines, the substance ahead of its results:
Substance,binding (CHD5 (PPCC)),binding on domain microarray [1],Array Heatmap signal (histone peptide microarray) (MORC3 (CW)),Array Heatmap signal (histone peptide microarray) (KDM7A),Array Heatmap signal (histone peptide microarray) (ING2),Array Heatmap signal (histone peptide microarray) (MLL5),Array Heatmap signal (histone peptide microarray) (PHF21A),further results
H3K4me1: H3 1-20 [Peptide H3K4me1],preference for H3K4me0/1,did not detect H3K4me1 to the same degree,0.5834,0.37,0.606,0.5428,0.4917,binding (TRIM66 (PB); n = 2): preference for H3K4me0 and me1
H3K9ac: H3 1-20 [Peptide H3K9ac],–,–,–,–,–,–,–,Array Heatmap signal (histone peptide microarray) (MORC3 (CW); listed as 2): 0.5166; Array Heatmap signal (histone peptide microarray) (MORC3 (CW); listed as 3): 0.5177; Array Heatmap signal (histone peptide microarray) (KDM7A; listed as 2): 0.303; Array Heatmap signal (histone peptide microarray) (KDM7A; listed as 3): 0.3051; Array Heatmap signal (histone peptide microarray) (ING2; listed as 2): 0.6059; Array Heatmap signal (histone peptide microarray) (ING2; listed as 3): 0.6036; Array Heatmap signal (histone peptide microarray) (MLL5; listed as 2): 0.5361; Array Heatmap signal (histone peptide microarray) (MLL5; listed as 3): 0.5261; Array Heatmap signal (histone peptide microarray) (PHF21A; listed as 2): 0.4621; Array Heatmap signal (histone peptide microarray) (PHF21A; listed as 3): 0.47
H3K9me3: H3 1-20 [Peptide H3K9me3],ability to bind to the peptides containing H3K9me3,–,0.4553,0.3458,0.5901,0.5674,0.4617,binding (TRIM66 (PB); n = 2): ability to bind to the peptides containing H3K9me3
H3S10p: H3 1-20 [Peptide H3S10p],–,–,0.4872,0.4084,0.606,0.5416,0.5054,–
